Patent US20260309717A1, “PROXIMITY INDUCING SYSTEM AND USES THEREOF” (SORBONNE UNIVERSITE, priority 2022, published 2026)

Target: T1, ^FIREmate and ^FIREtag (fused to FRB and FKBP) (Halorhodospira halophila, UniProt P16113, A30V/C69G/D97P/F96I, form not given/G21E/G25R/K17N/M100R/M109L/Q41L/Q99S/S72T/T101G/V83A/Y94W/Y98T)
T1 sequence (P16113 1-114 A30V/C69G/D97P/F96I/G21E/G25R/K17N/M100R/M109L/Q41L/Q99S/S72T/T101G/V83A/Y94W/Y98T): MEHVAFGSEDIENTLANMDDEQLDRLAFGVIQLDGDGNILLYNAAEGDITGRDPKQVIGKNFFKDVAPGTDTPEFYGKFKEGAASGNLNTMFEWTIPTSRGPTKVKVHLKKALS
Test: Flow cytometry of fluorescent ternary assembly formation in HEK293T cells co-expressing FKBP-^FIREtag and FRB-^FIREmate
Assay type: cell-based
Experimental: FIGS. 2A and 2B are graphs illustrating the fluorogen-dependent interaction between the two polypeptides ^FIREmate and ^FIREtag. The graphs show the normalized average fluorescence detected from about 50,000 HEK293T cells co-expressing the FK506-binding protein (FKBP) fused to ^FIREtag and the FKBP-rapamycin-binding domain of mammalian target of rapamycin (FRB) fused to ^FIREmate treated without (triangles) or with (squares) 500 nM of rapamycin, and with 1, 5, 10, 25 or 50 μM of HBR-2,5DM (2A) or HMBR (2B). Data represent the mean values±SD of three independent experiments.
The formation of a fluorescent ternary assembly was assessed by flow cytometry in HEK293 cells expressing ^FIREmate and ^FIREtag fused to the C-termini of FKBP (FK506-binding protein) and FRB (FKBP-rapamycin-binding domain of mammalian target of rapamycin), […]. FKBP and FRB are able to dimerize upon addition of rapamycin. Treatment of the HEK293 cells with rapamycin is thus expected to induce the dimerization of FKBP and FRB, and subsequently to induce proximity between ^FIREtag and ^FIREmate.

Cc1cc(/C=C2\SC(=S)NC2=O)c(C)cc1O [HBR-2,5DM, (Z)-5-(4-hydroxy-2,5-dimethylbenzylidene)-2-thioxo-1,3-thiazolidin-4-one]
dimerization of FKBP and FRB (induced proximity) (absence of rapamycin): able to induce the dimerization of FKBP and FRB
formation of a ternary fluorescent assembly (fluorogen 1, 5, 10, 25 or 50 μM, HEK293 cells): induced the formation of a ternary fluorescent assembly at all tested fluorogen concentrations
dependence of ternary fluorescent assembly formation on rapamycin (initial proximity) (with or without 500 nM rapamycin, fluorogen 1-50 μM): regardless of the presence or absence of rapamycin
